Values quoted from earlier work as cited in patent publication US9873661B2, “Small molecule malarial Aldolase-TRAP enhancers and glideosome inhibitors” (NEW YORK UNIVERSITY, priority 2011, dated 2018).

Target: T1, plant plasma membrane H+-ATPase (PMA) and 14-3-3 (Nicotiana tabacum, UniProt P93343)
T1 sequence (P93343 1-260): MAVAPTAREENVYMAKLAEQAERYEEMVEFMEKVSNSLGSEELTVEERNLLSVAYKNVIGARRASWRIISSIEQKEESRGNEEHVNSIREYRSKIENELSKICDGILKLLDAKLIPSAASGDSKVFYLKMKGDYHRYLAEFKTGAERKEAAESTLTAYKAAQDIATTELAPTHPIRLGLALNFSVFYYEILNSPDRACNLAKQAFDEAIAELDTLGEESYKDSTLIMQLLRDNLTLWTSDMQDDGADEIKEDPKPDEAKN

fusioccin
increase of binding affinity between PMA and 14-3-3: approximately 90 fold
